Data from article PMC5620609 (Pharmaceuticals, 2017).

Tests used:
[1] = tested on: human colon cancer cell line HCT-116; test: In vitro growth inhibition (CellTiter-Glo), HCT-116; format: cell-based; conditions: HCT 116 TP53(-/-), read-out: GI50 (concentration of drug that inhibited 50% of cell growth), 72 h exposure
Method: Cells were grown in an appropriate medium for the cell line of interest; 96 well plates of each cell line were seeded with 5000 cells per well and left overnight. Drug exposed cells were incubated at 37 °C for 72 h. At the end of the 72 h exposure period, plates were removed for the CellTiter-Glo® assay. Luminescence was recorded on a Synergy 4.0. Assays were performed in triplicate.

total DNMT = test: Total DNMT inhibition, colorimetric assay in HCT-116 cells; format: cell-based, human; conditions: 24 h
Method: Total DNMT activity was measured in the colon cancer cell line HCT-116. The assay was performed using the EpiQuick^TM DNA Methyltransferase Activity/Inhibition Assay Kit (Epigentek, Brooklyn, NY, USA). […] Assays were performed three times in triplicate.

RNR = biological target: T1, RNR (Homo sapiens, UniProt P23921); test: RNR inhibition whole cell assay (HPLC of nucleotides from HeLa cell extracts); format: cell-based; conditions: 50 µM, 16 h
T1 construct: endogenous in cells; host or cells: HeLa
T1 sequence (P23921 1-792): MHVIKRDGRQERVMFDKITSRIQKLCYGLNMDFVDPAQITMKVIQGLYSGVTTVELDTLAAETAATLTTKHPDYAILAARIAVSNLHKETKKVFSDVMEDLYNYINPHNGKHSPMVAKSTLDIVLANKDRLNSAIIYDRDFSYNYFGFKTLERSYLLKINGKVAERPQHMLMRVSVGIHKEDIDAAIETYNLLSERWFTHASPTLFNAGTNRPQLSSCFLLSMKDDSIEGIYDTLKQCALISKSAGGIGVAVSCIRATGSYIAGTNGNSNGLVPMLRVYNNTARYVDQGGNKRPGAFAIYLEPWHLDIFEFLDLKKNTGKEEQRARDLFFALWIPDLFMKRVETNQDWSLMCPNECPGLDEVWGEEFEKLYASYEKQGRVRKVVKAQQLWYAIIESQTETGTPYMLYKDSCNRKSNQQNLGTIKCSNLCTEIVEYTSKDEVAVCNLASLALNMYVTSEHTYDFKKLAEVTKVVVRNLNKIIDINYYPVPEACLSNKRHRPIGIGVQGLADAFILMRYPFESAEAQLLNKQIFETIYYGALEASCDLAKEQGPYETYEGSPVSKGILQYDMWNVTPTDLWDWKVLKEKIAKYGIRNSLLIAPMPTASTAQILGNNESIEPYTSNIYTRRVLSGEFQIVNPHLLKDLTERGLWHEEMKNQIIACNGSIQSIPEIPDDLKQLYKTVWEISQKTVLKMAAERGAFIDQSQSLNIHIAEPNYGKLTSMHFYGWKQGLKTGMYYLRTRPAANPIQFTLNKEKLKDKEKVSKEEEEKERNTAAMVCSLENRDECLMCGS
T1 sequence (P31350 1-389 partner): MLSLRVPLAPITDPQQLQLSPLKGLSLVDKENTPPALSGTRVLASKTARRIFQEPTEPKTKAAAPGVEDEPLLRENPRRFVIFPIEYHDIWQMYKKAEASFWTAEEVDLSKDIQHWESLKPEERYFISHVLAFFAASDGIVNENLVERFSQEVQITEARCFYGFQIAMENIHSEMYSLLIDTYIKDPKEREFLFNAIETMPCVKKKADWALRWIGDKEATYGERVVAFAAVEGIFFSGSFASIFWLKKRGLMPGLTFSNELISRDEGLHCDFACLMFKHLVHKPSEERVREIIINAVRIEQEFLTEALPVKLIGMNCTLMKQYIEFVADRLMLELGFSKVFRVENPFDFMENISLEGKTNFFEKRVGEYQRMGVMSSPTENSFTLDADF
From the text: Gemcitabine was used as a positive control.
The method used to extract and quantitate nucleotides followed previously reported procedures.

[2] = reported for decitabine; cited from earlier work
in vivo = conditions: mouse, iv, 5 mg/kg
Method: Three mice were placed in a dose group on the first day of treatment (Day 1). […] Animals were observed daily for mortality and moribundity. Body weights were measured daily starting on day 1.

In the case of `Nc1ncn([C@@H]2O[C@H](CO)[C@@H](O)[C@H]2O)c(=O)n1` [5-azacytidine], the GI50 [1] is reported as 620 nM, the “inhibition of total DNMT” value (total DNMT; 1 µM, mean of 3 experiments) is reported as 19.2% and the “inhibition of total DNMT” value (total DNMT; 10 µM) is reported as 48.6%.
In the case of `Nc1ccn([C@@H]2O[C@H](CO)[C@@H](O)C2(F)F)c(=O)n1` [Gemcitabine, gemcitabine, reference compound], the ADP concentration (RNR) is reported as 15,639, the ATP concentration (RNR) is reported as 26,296 and the CTP concentration (RNR) is reported as 1297. The GTP concentration (RNR) was 2036, the UTP concentration (RNR) was 4801 and the “dATP, peak area” value (RNR) was 0 AU. The “dGDP, peak area” value (RNR) was 7.95 AU, the “dTDP, peak area” value (RNR) was 43.4 AU and the “dUTP, peak area” value (RNR) was 5.3 AU.
In the case of `Nc1ncn([C@H]2C[C@H](O)[C@@H](CO)O2)c(=O)n1` [decitabine, 5-aza-2′-deoxycytidine], the half-life [2] is listed as 30 min and the MTD at 3 weeks (in vivo) is listed as < 5 mg/kg.
